Each structure is given as a SMILES string. “And” between values parts separate entries of the source, which are not always exact repeats. Equal entries are not always repeated.

Data on 28 compounds can be found in ChEMBL document CHEMBL3638691, “Quinoline derivatives and MELK inhibitors containing the same” (2015).

This assay addresses Maternal embryonic leucine zipper kinase (Homo sapiens, UniProt Q14680). In words: Kinase Assay: MELK activity was determined in the presence or absence of compounds using fluorescein isothiocyanate-labeled (FITC-labeled) histone H3 peptide as a substrate. The extent of FITC-labeled histone H3 peptide phosphorylation was measured by immobilized metal ion affinity-based fluorescence polarization (IMAP) technology (Sportsman J R, et al., Assay Drug Dev. Technol. 2: 205-14, 2004) using IMAP FP Progressive Binding System (Molecular Devices Corporation). Test compounds were dissolved in DMSO at 12.5 mM and then serially diluted as the DMSO concentration in the assays to be 1%. The serially diluted compounds, 0.8 ng/micro-L PBK (Carna Biosciences) and 100 nM FITC-labeled histone H3 peptide were reacted in a reaction buffer (20 mM HEPES, 0.01% Tween-20, 0.3 mM MgCl2, 2 mM dithiothreitol, 50 micro-M ATP, pH 7.4) at room temperature for 1 hour. The reaction was stopped by the addition of three fold assay volume of progressive binding solution. Following 0.5 hour incubation at room temperature. A general note: Polarisation of emitted light reports the rotation of a fluorescent probe.

Maternal embryonic leucine zipper kinase, sequence (Q14680 whole entry): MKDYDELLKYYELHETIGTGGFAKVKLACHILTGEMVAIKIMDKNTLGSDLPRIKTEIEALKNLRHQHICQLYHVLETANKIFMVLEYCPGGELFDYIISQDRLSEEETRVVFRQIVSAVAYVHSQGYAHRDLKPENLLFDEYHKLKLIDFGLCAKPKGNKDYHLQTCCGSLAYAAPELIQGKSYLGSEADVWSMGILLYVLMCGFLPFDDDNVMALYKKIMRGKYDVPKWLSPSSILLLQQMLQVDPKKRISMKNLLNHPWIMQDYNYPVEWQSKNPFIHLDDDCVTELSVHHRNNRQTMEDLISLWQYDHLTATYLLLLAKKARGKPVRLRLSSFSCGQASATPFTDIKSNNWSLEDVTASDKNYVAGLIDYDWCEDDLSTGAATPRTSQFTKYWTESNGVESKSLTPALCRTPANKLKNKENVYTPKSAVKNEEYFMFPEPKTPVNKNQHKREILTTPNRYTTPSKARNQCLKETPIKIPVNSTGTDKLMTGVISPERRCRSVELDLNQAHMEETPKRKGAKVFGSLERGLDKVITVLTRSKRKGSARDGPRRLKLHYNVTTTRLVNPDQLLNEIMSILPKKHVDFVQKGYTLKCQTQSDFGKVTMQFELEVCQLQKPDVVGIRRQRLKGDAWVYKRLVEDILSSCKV

Take `CC(=O)c1cnc2ccc(-c3cc(Cl)c(O)c(Cl)c3)cc2c1N[C@H]1CC[C@H](CN(C)C)CC1`: the IC50 (as a rule, the point on the concentration scale where inhibition reaches its midpoint) came to 3.1 nM.
Under `CC(=O)c1cnc2ccc(-c3cnc(C#N)nc3)cc2c1Nc1ccc(CN(C)C)cc1` stands 2.2 nM.
`COc1cc(-c2ccc3ncc(C(=O)C4CC4)c(Nc4ccc(C5CCCN5C)cn4)c3c2)cc(Cl)c1O` (stereo not drawn) gave an IC50 of 36 nM.
For the compound `COc1cc(-c2ccc3ncc(C#N)c(N[C@H]4CC[C@H](N(C)C)CC4)c3c2)cc(Cl)c1O`, the IC50 came out at 1.8 nM.
`Cc1cc(O)c(Cl)cc1-c1ccc2ncc(C(=O)C3CC3)c(N3CCC(CN(C)C)CC3)c2c1` came in with an IC50 of 60 nM.
Under `CN(C)CC1CCN(c2c(C(=O)C3CC3)cnc3ccc(-c4ccc(OC(F)F)cc4)cc23)CC1` stands 630 nM; under `O=C(c1cnc2ccc(-c3cc(Cl)c(O)c(Cl)c3)cc2c1Nc1ccc(CN2CCOCC2)cc1)C1CC1`, 20 nM; under `CN(C)Cc1ccc(Nc2c([S+](C)[O-])cnc3ccc(-c4cc(Cl)c(O)c(Cl)c4)cc23)cc1` (stereo not drawn), 8.2 nM.
Compound `CN(C)CC1CCN(c2c(C(=O)C3CC3)cnc3ccc(-c4ccc5c(c4)CC(=O)N5)cc23)CC1` came in with an IC50 of 660 nM.
In turn, `N#Cc1ncc(-c2ccc3ncc(C(=O)C4CC4)c(Nc4ccc(CN)cc4)c3c2)cn1` showed an IC50 of 1.3 nM.
Under `O=C(c1cnc2ccc(-c3cc(Cl)c(O)c(Cl)c3)cc2c1N[C@H]1CC[C@H](CN2CCCC2)CC1)C1CC1` stands 1.4 nM; under `CN1CCN(C[C@H]2CC[C@H](Nc3c(C(=O)C4CC4)cnc4ccc(-c5cc(Cl)c(O)c(Cl)c5)cc34)CC2)CC1`, 4.2 nM and 2.8 nM; under `CN(C)C1CCN(C[C@H]2CC[C@H](Nc3c(C(=O)C4CC4)cnc4ccc(-c5cc(Cl)c(O)c(Cl)c5)cc34)CC2)C1` (stereo partly drawn), 3 nM.
Under `CN(C)C1CCN(Cc2ccc(Nc3c(C(=O)C4CC4)cnc4ccc(-c5cc(Cl)c(O)c(Cl)c5)cc34)cc2)C1` (stereo not drawn) stands 7.2 nM and 5.6 nM; under `O=C(c1cnc2ccc(-c3cc(Cl)c(O)c(Cl)c3)cc2c1N1CCC(CCN2CCCC2)CC1)C1CC1`, 2.3 nM; under `CC(=O)c1cnc2ccc(-c3cc(Cl)c(O)c(Cl)c3)cc2c1N[C@H]1CC[C@H](CN2CCN(C)CC2)CC1`, 5.5 nM.
For `CC(=O)c1cnc2ccc(-c3cc(Cl)c(O)c(Cl)c3)cc2c1N[C@H]1CCC[C@@H](CN2CCN(C)CC2)C1` the value was 2.7 nM; for `CCN(CC)CCO[C@H]1CC[C@H](Nc2c(C(C)=O)cnc3ccc(-c4cc(Cl)c(O)c(Cl)c4)cc23)CC1`, 2.9 nM.
In turn, `CC(=O)c1cnc2cc(C)c(-c3cc(Cl)c(O)c(Cl)c3)cc2c1N[C@H]1CC[C@H](CN2CCC(N)C2)CC1` (stereo partly drawn) returned an IC50 of 55 nM.
Take `CS(=O)(=O)c1cnc2ccc(-c3cc(Cl)c(O)c(Cl)c3)cc2c1Nc1cccc(CCN2CCCC2)c1`: the IC50 worked out at 2 nM.
Under `CC(=O)c1cnc2ccc(-c3cc(Cl)c(O)c(Cl)c3)cc2c1Nc1ccc(S(=O)(=O)N2CCN(C)CC2)cc1` stands 36 nM; under `CS(=O)(=O)c1cnc2ccc(-c3cc(Cl)c(O)c(Cl)c3)cc2c1N[C@H]1CC[C@H](CN2CCCC2)CC1`, 2.7 nM; under `CN(C)C1CCN(c2ccc(Nc3c(S(C)(=O)=O)cnc4ccc(-c5cc(Cl)c(O)c(Cl)c5)cc34)cn2)C1` (stereo not drawn), 2.4 nM.
In turn, `CN(C)C[C@H]1CC[C@H](Nc2c(C(=O)C3CCCC3)cnc3ccc(-c4cc(Cl)c(O)c(Cl)c4)cc23)CC1` gave an IC50 of 3 nM.
For `CN(C)C[C@H]1CC[C@H](Nc2c(C(=O)C(C)(C)C)cnc3ccc(-c4cc(Cl)c(O)c(Cl)c4)cc23)CC1` the value was 22 nM; for `CC(=O)c1cnc2ccc(-c3cc(Cl)c(O)c(Cl)c3)cc2c1N[C@H]1CC[C@H](NC(=O)[C@@H](N)C(C)(C)C)CC1`, 4.2 nM; for `O=C(c1cnc2ccc(-c3cc(Cl)c(O)c(Cl)c3)cc2c1Nc1cccc(CCN2CCCC2)c1)C1CCCC1`, 9.6 nM.
In turn, `CC(N)C(=O)N[C@H]1CC[C@H](Nc2c(C(=O)C(C)(C)C)cnc3ccc(-c4cc(Cl)c(O)c(Cl)c4)cc23)CC1` (stereo partly drawn) gave a half-maximal inhibitory concentration (IC50) of 15 nM.
